According to patent EP2236511A2, “LIGANDS OF ALPHA-ADRENOCEPTORS AND OF DOPAMINE, HISTAMINE, IMIDAZOLINE AND SEROTONIN RECEPTORS AND THE USE THEREOF” (priority 2007, dated 2009):
pIC50, pKi: −log10 of the molar value.

What was measured:
human D4.2 receptor = target: T1, human D4.2 receptor (Homo sapiens, UniProt P21917, DEL265-296); test: Radioligand binding to dopamine receptor D4.2 ([3H] Spiperone, CHO-K1 membranes); details: read-out: Dopamine receptors, % inhibition D4.2
T1 construct: expressed in transfected cells; host or cells: CHO-K1
T1 sequence (P21917 with tags, fused parts or gaps DEL265-296): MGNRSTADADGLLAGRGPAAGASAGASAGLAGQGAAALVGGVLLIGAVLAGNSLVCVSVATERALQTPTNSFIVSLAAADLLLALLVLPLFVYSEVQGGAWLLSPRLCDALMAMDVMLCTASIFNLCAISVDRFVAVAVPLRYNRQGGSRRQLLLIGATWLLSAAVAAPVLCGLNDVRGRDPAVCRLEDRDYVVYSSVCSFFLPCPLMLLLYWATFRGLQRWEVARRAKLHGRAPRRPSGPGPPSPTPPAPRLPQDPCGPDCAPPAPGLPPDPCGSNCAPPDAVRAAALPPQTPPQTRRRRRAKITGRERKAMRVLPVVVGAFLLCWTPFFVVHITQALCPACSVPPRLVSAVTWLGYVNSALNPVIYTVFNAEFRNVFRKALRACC
Method: Screening of the disclosed compounds for potential ability to interact with dopamine receptor D4.2 is carried out by method of radioligand binding. […] From the cells transfected in this way membrane species are prepared by homogenization of these cells in glass homogenizer with the subsequent separation of plasmatic membranes from cell nuclei, mitochondrias and cell wreckages by differential centrifugation. […] After incubation samples are filtered in vacuo on glass-microfiber filters G/F (Millipor, USA), filters are washed three times with cold solution of medium and radioactivity is measured by scintillation counter MicroBeta 340 (Perkin Elmer, USA). Nonspecific binding which makes up 10% of the overall binding is determined by incubation of membrane species with radioligand in the presence of 10 µM of Haloperidol.
Spiperone is used as positive control. Tested compounds' binding to the receptor is determined by their ability to displace radioligand and expressed in percent of displacement (%I). Values of %I are calculated according to the following equation: %I = (TA-CA)/(TA-NA)*100, [formula] wherein: TA - is overall radioactivity in the presence of radioligand only, CA - is radioactivity in the presence of radioligand and tested compound and NA - is radioactivity in the presence of radioligand and Haloperidol (10 µM).

imidazoline receptor I2 = test: Radioligand binding to imidazoline receptor I2 ([3H] Idazoxan, rat brain membranes); details: 10 µM ligand
Method: For this purpose membrane species are prepared from rat (Wistar) brain homogenates by homogenization of them in glass homogenizer with the subsequent separation of plasmatic membranes from cell nuclei, mitochondrias and cell wreckages by differential centrifugation. […] After incubation the samples are filtered in vacuo on glass-microfiber filters G/F (Millipor, USA), filters are washed three times with cold solution of medium and radioactivity is measured by scintillation counter MicroBeta 340 (Perkin Elmer, USA). […] Idazoxan is used as positive control.
The tested compounds' binding to the receptor is determined by their ability to displace the radioligand and expressed in percent of displacement (%I). Values of %I are calculated according to the following equation: %I = (TA-CA)/(TA-NA)*100, [formula] wherein: TA - is the overall radioactivity in the presence of radioligand only, CA - is the radioactivity in the presence of radioligand and tested compound and NA - is a radioactivity in the presence of radioligand and Idazoxan (1 µM).

human D1 receptor = target: T2, human D1 receptor (Homo sapiens, UniProt P21728); test: Radioligand binding to dopamine receptor D1 ([3H] SCH-23390, CHO membranes); details: read-out: Dopamine receptors, % inhibition D1
T2 construct: expressed in transfected cells; host or cells: CHO
Description: For this purpose sDNA of human D1 receptor is expressed in CHO cells, as it was described in [Dearry A, Gingrich JA, Falardeau P, Fremeau RT Jr, Bates MD and Caron MG. Molecular cloning and expression of the gene for a human D1 dopamine receptor. Nature. […] Nature.

human D3 receptor = target: T3, human D3 receptor (Homo sapiens, UniProt P35462); test: Radioligand binding to dopamine receptor D3 ([3H] Spiperone, CHO membranes)
T3 construct: expressed in transfected cells; host or cells: CHO
Description: For this purpose sDNA of human D3 receptor is expressed in CHO cells, as it was described in [Sokoloff P, Giros B, Martres M-P, Bouthenet M-L and Schwartz J-C. Molecular cloning and characterization of novel dopamine receptor (D3) as target for neuroleptics. Nature. […] Molecular cloning and characterization of novel dopamine receptor (D3) as target for neuroleptics. Nature. […] Spiperone is used as positive control.

male mice of BALB/c line [1] = test: Passive Avoidance of mice in the Shuttle Chamber, memory disturbed by Scopolamine; format: in vivo; details: Scopolamine 0.3 mg/kg, injected 30 minutes before training; figures 1-3
Method: Example 14. […] A shuttle chamber (Ugo Basile, Italy) consisted of two sections was used. […] The sections were connected through a hole which could be overlapped by a vertical door. The floor was made of transverse metal bars on which DC current impulses could be fed. Experiments were carried out in aged male mice of BALB/c line weighing 20-24 grams.
Each group consisted of at least 8 animals. Animal was placed in light section, and latent period of the first entry into dark chamber was registered. Then the vertical door was closed and the animal was punished by 0.6 mA DC current for 3 seconds. After that it was taken back to its homecage. In 22-24 hours the same animal was placed again in light section of the shuttle chamber and latent period of its first entry into dark section, the total time of its stay in light section, and the number of entries into dark section, were registered. Each monitoring lasted for 5 minutes.
Testing was carried out during the day time in isolated laboratory using white noise at level of about 70 decibel above human hearing threshold.
Scopolamine causes the disturbance of training (memory loss) that results in […].

mice [2] = test: Mice Training in Morris Water Maze (Scopolamine); format: in vivo; details: unitary introduction of active ingredient; figures 10-13
Method: Example 17. Mice Training in Morris Water Maze. A round pool which was filled with water at 20-22°C was used. A round ceramic platform of 14cm height was placed in the pool. Animals's behavior was registered with automated computer videosystem in combination with software package of movement analysis Any-maze (Stoelting Co., US). Before testing mice suitable for training were selected. That was done by placing the platform 1cm above the water level and putting an animal on the platform for 20 seconds. Then the mouse was sunk into the water on the opposite side of the pool, allowed to find the platform and climbed it […] 60 seconds, where it was left for additional 20 seconds. After that the mouse was repeatedly immersed into water on the opposite side of the pool and allowed to look for platform. If it failed in finding the platform within 60 seconds the experimentator helped it to find the platform and climb it. If the mice could not find the platform itself in two consecutive attempts it was excluded from experiment. During the next two days the platform was placed 0.5 centimeter lower the water level. Every day the mice were given four attempts for finding the platform within 60 seconds. The time interval between the attempts was 20 seconds, during which the mice stayed on the platform. Every day before the first attempt mouse was placed on the platform for 20 seconds. The time needed for finding and climbing the platform was registered. The animals were sunk in water in 3 different places on the side of the pool opposite to platform. On each day of two-day testing 35-40 minutes before the beginning of training the mice were injected intraintestinally with physiological solution, Scopolamine or Scopolamine in combination with investigated compound. At least 8 animals were used in each group. On the third day the platform was removed and each animal was placed one time in the pool for a period of 60 seconds. The time each mouse spent in the area where the platform had been located during the previous days was registered. This time interval was regarded as a measure of effectiveness of training fulfilled during the previous two days. The testing was carried out during the day time in isolated laboratory using "white noise" at level of about 70 decibel above the human hearing threshold.

mice [3] = test: Tail suspension test; format: in vivo; details: dose of 0.05 mg/kg during 4 days; fig. 16
Method: Example 20. Mice behavior in tail suspension test. In the test a mouse was suspended by tail with a sticky tape on the holder over horizontal surface at a height of 40 cm, and during 3 minutes the total time of complete immobility was recorded. Automated computerized detection of motion with videosystem and Any-maze programm were used. After administration of ligand 1.1.2(1-2) (CD-008-0045) in dose of 0.05 mg/kg during 4 days the time of complete immobility of mouse was lowered almost by factor of 2.5 (fig.16), that testifies the cutting of period of depressively-like condition.

male mice of BALB/c line [4] = test: Mice Behavior in the Elevated Plus Maze; format: in vivo; details: doses of 0,05 and 0,1 mg/kg
Description: Example 16. […] The length of each arm of the maze was 30cm, width is 5cm, and height of the walls was 15cm. Two opposite arms were closed from both sides and end faces by transparent walls, the other two arms were lit and opened. A mouse was placed in the center of the maze and for the next five minutes the number of entries into opened and closed arms and the time spent in each type of arms was registered. […] The animals usually avoided opened arms (the preference index is between 0.2 and 0.3). Compounds with tranquilizing action increased this index up to 0.5-0.6 or even more and reduced the number of defecations without changing the overall motion activity of the mice (the total number of their entries to the arms).

recombinant human 5-HT1A = target: T4, recombinant human 5-HT1A (Homo sapiens, UniProt P08908); test: Radioligand binding to serotonin receptor 5-HT1A ([3H] 8-OH-DPAT, CHO membranes); details: read-out: 5-HT1A % inhibition
T4 construct: expressed in transfected cells; host or cells: CHO
T4 sequence (P08908 1-422): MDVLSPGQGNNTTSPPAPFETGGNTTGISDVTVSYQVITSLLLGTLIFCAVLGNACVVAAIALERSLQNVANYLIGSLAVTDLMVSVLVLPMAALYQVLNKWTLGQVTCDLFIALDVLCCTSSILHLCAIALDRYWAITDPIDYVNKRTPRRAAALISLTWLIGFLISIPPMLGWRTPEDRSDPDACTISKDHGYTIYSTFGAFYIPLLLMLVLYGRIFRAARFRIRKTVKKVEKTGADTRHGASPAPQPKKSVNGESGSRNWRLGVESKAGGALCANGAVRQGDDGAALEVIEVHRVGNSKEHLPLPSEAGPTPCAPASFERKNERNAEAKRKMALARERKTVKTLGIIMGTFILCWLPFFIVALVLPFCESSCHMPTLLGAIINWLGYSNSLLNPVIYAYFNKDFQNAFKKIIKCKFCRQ
Description: J Pharmacol Exp Ther. 306(1): 301-309, 2003]. […] Metergoline is used as positive control.

[5] = target: T5, serotonin receptor 5-HT1B (Rattus norvegicus, UniProt P28564); test: Radioligand binding to serotonin receptor 5-HT1B ([125I] cyanopindolol, rat brain cortex membranes); details: read-out: 5-HT1B % inhibition
T5 construct: membrane species are prepared from rat brains (Wistar) by homogenization of species of rat brain-cortices; from tissue; host or cells: rat (Wistar) brain cortex
Description: Serotonin is used as positive control.

[6] = target: T6, recombinant human 5-HT2A receptor (Homo sapiens, UniProt P28223); test: Radioligand binding to serotonin receptor 5-HT2A ([3H] Ketanserin, CHO-K1 membranes); details: 10 µM ligand
T6 construct: expressed in transfected cells; host or cells: CHO-K1
Description: 9-C. […] J Neurochem. […] Ketanserin is used as positive control.

[7] = target: T7, recombinant human 5-HT2B receptor (Homo sapiens, UniProt P41595); test: Radioligand binding to serotonin receptor 5-HT2B ([3H] Lysergic acid diethylamide, CHO-K1 membranes); details: read-out: 5-HT2B % inhibition
T7 construct: expressed in transfected cells; host or cells: CHO-K1

[8] = target: T8, recombinant human 5-HT6 receptor (Homo sapiens, UniProt P50406); test: Radioligand binding to serotonin receptor 5-HT6 ([3H] Lysergic acid diethylamide, HeLa membranes); details: read-out: 5-HT6 % inhibition
T8 construct: expressed in transfected cells; host or cells: HeLa
Description: Mol Pharmacol. 43:320-327, 1993]. […] Methiothepin is used as positive control.

T3 sequence (P35462 whole entry): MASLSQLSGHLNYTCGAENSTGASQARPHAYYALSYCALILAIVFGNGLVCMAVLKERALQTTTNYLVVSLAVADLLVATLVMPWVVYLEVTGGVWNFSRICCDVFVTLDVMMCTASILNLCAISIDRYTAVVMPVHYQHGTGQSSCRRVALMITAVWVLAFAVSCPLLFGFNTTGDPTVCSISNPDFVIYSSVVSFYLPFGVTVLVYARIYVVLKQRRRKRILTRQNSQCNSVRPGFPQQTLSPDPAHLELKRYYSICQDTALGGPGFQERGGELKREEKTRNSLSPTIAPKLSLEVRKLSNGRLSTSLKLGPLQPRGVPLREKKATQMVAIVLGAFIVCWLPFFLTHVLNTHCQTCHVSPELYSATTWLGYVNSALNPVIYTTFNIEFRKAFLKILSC
T7 sequence (P41595 whole entry): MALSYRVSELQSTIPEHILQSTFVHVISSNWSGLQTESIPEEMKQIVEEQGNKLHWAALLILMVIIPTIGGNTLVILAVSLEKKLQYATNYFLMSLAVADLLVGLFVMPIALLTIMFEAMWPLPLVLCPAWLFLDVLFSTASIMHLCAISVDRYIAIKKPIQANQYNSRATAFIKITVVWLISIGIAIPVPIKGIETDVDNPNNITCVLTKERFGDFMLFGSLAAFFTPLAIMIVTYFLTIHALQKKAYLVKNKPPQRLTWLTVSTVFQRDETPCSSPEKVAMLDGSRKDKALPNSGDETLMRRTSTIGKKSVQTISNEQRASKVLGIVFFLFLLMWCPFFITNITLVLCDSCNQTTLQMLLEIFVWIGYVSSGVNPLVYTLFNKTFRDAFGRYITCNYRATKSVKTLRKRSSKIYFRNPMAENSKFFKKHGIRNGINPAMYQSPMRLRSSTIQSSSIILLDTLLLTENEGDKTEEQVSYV
T8 sequence (P50406 whole entry): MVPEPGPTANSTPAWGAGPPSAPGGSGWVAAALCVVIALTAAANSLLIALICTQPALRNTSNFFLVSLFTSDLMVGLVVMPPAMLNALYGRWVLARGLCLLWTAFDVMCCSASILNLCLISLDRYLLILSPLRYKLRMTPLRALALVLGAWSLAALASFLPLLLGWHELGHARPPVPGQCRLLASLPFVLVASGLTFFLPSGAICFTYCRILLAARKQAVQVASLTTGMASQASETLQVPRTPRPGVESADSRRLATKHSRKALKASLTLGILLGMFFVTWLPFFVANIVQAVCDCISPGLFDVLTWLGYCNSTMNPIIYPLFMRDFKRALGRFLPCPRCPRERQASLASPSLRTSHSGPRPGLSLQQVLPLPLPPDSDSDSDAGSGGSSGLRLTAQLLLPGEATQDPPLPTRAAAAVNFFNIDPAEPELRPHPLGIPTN
T2 sequence (P21728 whole entry): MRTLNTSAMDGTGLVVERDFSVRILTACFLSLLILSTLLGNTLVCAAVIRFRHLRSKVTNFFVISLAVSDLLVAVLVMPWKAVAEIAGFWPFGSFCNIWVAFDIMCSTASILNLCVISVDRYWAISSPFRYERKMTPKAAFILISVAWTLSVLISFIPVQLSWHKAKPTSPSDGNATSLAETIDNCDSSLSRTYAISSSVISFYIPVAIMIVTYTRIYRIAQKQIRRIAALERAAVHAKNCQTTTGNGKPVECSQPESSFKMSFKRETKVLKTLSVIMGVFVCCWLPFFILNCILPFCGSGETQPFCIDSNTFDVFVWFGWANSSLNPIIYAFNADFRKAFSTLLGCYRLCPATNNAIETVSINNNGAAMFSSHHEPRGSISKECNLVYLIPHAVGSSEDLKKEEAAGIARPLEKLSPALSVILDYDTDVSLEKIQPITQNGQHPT
T5 sequence (P28564 whole entry): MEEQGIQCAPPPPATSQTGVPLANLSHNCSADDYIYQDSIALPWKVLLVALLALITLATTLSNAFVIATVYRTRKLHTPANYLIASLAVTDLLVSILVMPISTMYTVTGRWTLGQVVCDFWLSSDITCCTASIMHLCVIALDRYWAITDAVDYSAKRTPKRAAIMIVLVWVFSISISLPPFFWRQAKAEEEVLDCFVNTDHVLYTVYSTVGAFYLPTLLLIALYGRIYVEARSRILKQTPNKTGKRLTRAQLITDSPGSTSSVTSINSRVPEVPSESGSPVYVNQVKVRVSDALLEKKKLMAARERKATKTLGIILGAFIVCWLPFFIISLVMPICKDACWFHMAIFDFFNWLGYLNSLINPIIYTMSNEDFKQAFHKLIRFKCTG
T6 sequence (P28223 whole entry): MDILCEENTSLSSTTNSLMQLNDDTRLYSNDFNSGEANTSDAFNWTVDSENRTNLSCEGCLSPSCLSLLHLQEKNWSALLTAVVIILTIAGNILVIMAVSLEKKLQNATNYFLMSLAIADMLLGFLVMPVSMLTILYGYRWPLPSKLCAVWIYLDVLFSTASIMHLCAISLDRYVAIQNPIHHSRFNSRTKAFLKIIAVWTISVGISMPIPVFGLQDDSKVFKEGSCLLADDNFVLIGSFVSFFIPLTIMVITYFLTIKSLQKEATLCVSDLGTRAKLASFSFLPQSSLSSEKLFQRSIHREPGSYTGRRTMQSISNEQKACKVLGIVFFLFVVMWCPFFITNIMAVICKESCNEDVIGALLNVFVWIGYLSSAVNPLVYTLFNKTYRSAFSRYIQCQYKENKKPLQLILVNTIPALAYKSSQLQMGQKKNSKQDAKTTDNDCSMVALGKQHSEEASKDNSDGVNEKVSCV

## Cc1ccc2c(c1)[C@H]1CN(C)CCC[C@@H]1N2CCc1ccc(C)nc1 (relative stereo) [1.6.2(11)]
Human D4.2 receptor
  inhibition at 10 µM: 6%
Imidazoline receptor I2
  % inhibition: 83%

## Cc1ccc2c(c1)c1c(n2CCc2ccccc2)CCN(C)C1 [1.1.2(1-2) ·2HCl]
Human D1 receptor
  inhibition at 10 µM: 89%
Human D3 receptor
  pIC50: 6.59
Human D3 receptor; Receptor D3
  pKi: 6.06
  nH: 0.797
Human D3 receptor; read-out: Dopamine receptors, % inhibition D3
  inhibition at 10 µM: 99%
Human D4.2 receptor
  inhibition at 10 µM: 103%

## Cc1ccc2c(c1)c1c(n2CCc2ccccc2)CCN(C)C1 [1.1.2(1-2), 2,8-dimethyl-5-phenethyl-1,2,3,4-tetrahydro-1H-pyrido[4,3-b]indole]
Male mice of BALB/c line [1]
  enhancement of memory disturbed by Scopolamine: improve memory
Mice [2]
  memory disorders caused by Scopolamine (time spent in area of the platform): decreasing memory disorders
Mice [3]
  time of complete immobility, lowered by factor: ~2.5

## Cc1ccc2c(c1)c1c(n2CCc2ccc(C)nc2)CCN(C)C1.Cl.Cl [1.1.2(4-2)]
Male mice of BALB/c line [1]
  enhancement of memory disturbed by Scopolamine: improve memory
Male mice of BALB/c line [4]
  Anxiolytic (tranquilizing) action: exhibit analogous action
Mice [2]
  memory disorders caused by Scopolamine (time spent in area of the platform): decreasing memory disorders

## Cc1ccc2c(c1)c1c(n2CCc2ccncc2)CCN(C)C1 [1.1.2(5-2)·2HCl]
Recombinant human 5-HT1A
  inhibition at 10 µM: 17%
[5]
  inhibition at 10 µM: 14%
[6]
  inhibition at 10 µM: 88%
[7]
  inhibition at 10 µM: 80%
[8]
  inhibition at 10 µM: 91%
Male mice of BALB/c line [1]
  enhancement of memory disturbed by Scopolamine: improve memory

## Cc1ccc2c(c1)c1c(n2CCc2ccncc2)CCCN(C)C1 [1.2.2(5-3)·2HCl]
Mice [2]
  memory disorders caused by Scopolamine (time spent in area of the platform): decreasing memory disorders
